Measured values as given in patent publication US20100056564A1, “Association of an anti-atherothrombotic agent and an anti-platelet-aggregation agent” (LES LABORATOIRES SERVIER, priority 2003, published 2010).

Test system: collagen-induced platelet aggregation
Test: Inhibition of collagen-induced platelet aggregation ex vivo
Format: in vivo, humans
Conditions: collagen 5 μg/ml; citrated platelet-rich plasma (PRPc), aggregometer; oral administration to 18 volunteers; compound A 10 mg, clopidogrel 75 mg
Protocol: Measurement of the Inhibition of Collagen-Induced Platelet Aggregation:
10 mg of compound A and 75 mg of clopidogrel were administered orally for three days to 18 volunteers previously treated with 75 mg of clopidogrel for 7 days. The effect of the association of compound A and clopidogrel was compared with the effects of compound A and clopidogrel administered separately.
In the course of the test, the percentage inhibition of platelet aggregation ex vivo induced by collagen (5 μg/ml) was calculated by measuring the platelet aggregation on citrated platelet-rich plasma (PRPc) with the aid of an aggregometer.

COC(=O)[C@H](c1ccccc1Cl)N1CCc2sccc2C1 [clopidogrel]
percentage inhibition of platelet aggregation ex vivo induced by collagen: 11%
